Laboratory results published in patent publication US20240374724A1, “ENPP1 INHIBITORS AND IMMUNE CELLS EXPRESSING CHIMERIC ANTIGEN RECEPTORS” (Angarus Therapeutics, Inc., priority 2021, published 2024).

Key:
4T1 tumor model = assay: Tumor-associated dendritic cells in mouse 4T1 tumor model with or without IR (FACS); format: in vivo, Balb/c mice; details: intratumoral 100 μL of 1 mM
Protocol: Anaesthetized animals were shielded with a 3.2 mm lead shield with a 15×20 mm aperture where the tumor was placed. […] On the next day, the tumor was extracted and incubated in RPMI+10% FBS with 20 μg/mL DNase I type IV (Sigma-Aldrich) and 1 mg/mL Collagenase from Clostridium histolyticum (Sigma-Aldrich) at 37° C. for 30 min. […] Cells were stained with Live/Dead fixable near-IR dead cell staining kit (Thermo Fisher Scientific), Fc-blocked for 10 min using TruStain fcX and subsequently antibody-stained with CD11c, CD45, and I-A/I-E (all Biolegend). Cells were analyzed using an SH800S cell sorter (Sony) or an LSR II (BD Biosciences).

4T1-luciferase tumor = 4T1-luciferase tumor model: IR with compound 1, cGAMP and/or anti-CTLA-4; tumor volume and survival; format: in vivo, Balb/c mice; details: 20 Gy IR + 10 μg cGAMP intratumoral alone
B16F10 melanoma = B16F10 melanoma with pmel-1 donor splenocytes (adoptive T cell therapy): tumor size and tumor flow cytometry; format: in vivo, C57BL/6 mice
From the text: For the study, 0.2×10^6 B16F10 melanoma cells/mouse were implanted on day −8 on flanks of C57BL/6 female mice. On day 0, when tumor size had reached about 80 mm3, mice were randomized into 3 groups with an n=12/group. All mice in the three groups were subjected to whole body irradiation with 5.0 Gy for lymphodepletion. […] gp100 specific donor splenocytes were harvested from C57BL/6 pmel-1 donor mice (The Jackson Laboratory, world wide web.jax.org/strain/005023). Briefly, splenocytes comprising immune cells such as T cells from spleens of 18 pmel-1 female C57BL/6 mice (Jackson labs) were harvested yielding˜90 Million splenocytes. The pmel-1 splenocytes were isolated, the red blood cells lysed, and the remaining splenocytes expanded and activated with IL-2 and gp100 antigen for 4 days in vitro, and administered to the B16 melanoma bearing mice by i.v. On day 7, mice were sacrificed, and tumor, spleen, and blood samples were collected. Tumor size of all three treatment groups were measured on days 0, 2, 5 and 7 (FIGS. 6 and 7). […] After mice were sacrificed, tumor samples were tested for the fraction of several live immune cells (CD45+ cells) in the tumor. Briefly, tumors were harvested, and samples digested with tumor digestion mix and cells collected and washed in FACS buffer. A sample of cells was stained with a live/dead stain (ef780) to test for live cells and enumerated by flow cytometry. […] When staining for intracellular markers, cells were fixed and permeabilized before staining with markers (ki67). For example, cells were stained with markers for MDSC and F4/80 macrophages and enumerated by flow cytometry. […] Samples were also analyzed for the percentage of gp100+, CD8+ T cells actively proliferating (ki67+ cells) that were present in the tumor.

IFN-γ secretion = assay: IFN-γ ELISA / ELISpot of splenocytes from B16F10 tumor bearing mice given donor T cells; format: in vivo, C57BL/6 mice
From the text: This example describes the in vitro activation and expansion of donor C57BL/6 pmel-1 splenocytes by INF-γ ELISA and INF-γ Elispot analysis of splenocytes derived from B16F10 melanoma syngeneic tumor model inoculated with Pmel-1 donor splenocytes (T-cells). Briefly, spleens and splenocytes from C57BL-B16F10 tumor bearing mice treated with or without an ENPP1 inhibitor and donor T cells are harvested and purified as described in Example 8. To test for cytokine secretion, the isolated splenocytes are then plated and co-cultured with gp100 peptide on a plate of an ELISpot kit and IFN-γ secretion is detected. The number of spots is counted for each well and summarized for each group. Additionally, or alternatively, IFN-γ secretion is detected with a IFN-γ ELISA test.

[1] = target: T1, purified recombinant mouse ENPP1 (Mus musculus, UniProt P06802); assay: ENPP1 activity assay using TMP-pNP as a substrate; format: biochemical; details: TMP-pNP 2 μM, mouse ENPP1 0.5 nM, pH 7.5
T1 sequence (P06802 1-906): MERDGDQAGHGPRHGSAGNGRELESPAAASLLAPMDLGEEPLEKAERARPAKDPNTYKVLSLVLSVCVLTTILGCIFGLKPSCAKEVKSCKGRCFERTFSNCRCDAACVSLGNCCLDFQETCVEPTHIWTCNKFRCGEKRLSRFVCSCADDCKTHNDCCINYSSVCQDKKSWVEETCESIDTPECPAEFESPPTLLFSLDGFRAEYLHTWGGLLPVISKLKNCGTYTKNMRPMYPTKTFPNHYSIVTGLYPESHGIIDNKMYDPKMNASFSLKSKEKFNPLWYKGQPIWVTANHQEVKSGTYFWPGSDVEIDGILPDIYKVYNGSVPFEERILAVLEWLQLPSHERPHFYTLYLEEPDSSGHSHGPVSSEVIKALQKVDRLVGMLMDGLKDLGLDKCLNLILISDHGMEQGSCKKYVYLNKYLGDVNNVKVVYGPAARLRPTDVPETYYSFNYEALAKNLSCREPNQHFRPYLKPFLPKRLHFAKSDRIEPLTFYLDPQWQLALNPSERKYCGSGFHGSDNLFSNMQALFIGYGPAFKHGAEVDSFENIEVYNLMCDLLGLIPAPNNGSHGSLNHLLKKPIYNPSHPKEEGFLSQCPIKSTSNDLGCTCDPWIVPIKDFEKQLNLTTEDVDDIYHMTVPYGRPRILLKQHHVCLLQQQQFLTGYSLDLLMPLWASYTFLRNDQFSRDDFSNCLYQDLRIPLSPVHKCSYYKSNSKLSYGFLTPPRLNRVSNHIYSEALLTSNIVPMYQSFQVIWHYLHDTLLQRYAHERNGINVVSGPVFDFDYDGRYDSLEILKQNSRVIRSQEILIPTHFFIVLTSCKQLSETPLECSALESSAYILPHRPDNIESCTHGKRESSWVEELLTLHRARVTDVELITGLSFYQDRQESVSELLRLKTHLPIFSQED
Protocol: Selected compounds of Table 1, Table 2, Table 3, Table 4, Table 5, or Table 6 and other derivatives were prepared and assessed in an ENPP1 activity assay using thymidine monophosphate paranitrophenol (TMP-pNP) as a substrate. Enzyme reactions were prepared with TMP-pNP (2 μM), 5-fold dilutions of ENPP1 inhibitor, and purified recombinant mouse ENPP1 (0.5 nM) in 100 mM Tris, 150 mM NaCl, 2 mM CaCl2, 200 μM ZnCl2, pH 7.5 at room temperature. Reaction progress was monitored by measuring absorbance at 400 nm of paranitrophenolate produced by the reaction for 20 minutes.

[2] = 50 mg/kg plus donor splenocytes

Protocol for CD14+ IFNB1 expression: Primary human peripheral blood mononucleocyte cells (PBMCs) were isolated by subjecting enriched buffy coat from whole blood to a Percoll density gradient. CD14^+ monocytes were isolated using CD14^+ MicroBeads (Miltenyi). CD14^+ monocyctes were cultured in RPMI supplemented with 2% human serum and 100 U/mL penicillin-streptomycin. […] 24-26 hours following supernatant transfer, total RNA was extracted using Trizol (Thermo Fisher Scientific) and reverse transcribed with Maxima H Minus Reverse Transcriptase (Thermo Fisher Scientific). Real-time RT-PCR was performed in duplicate with AccuPower 2×Greenstar qPCR Master Mix (Bioneer) on a 7900HT Fast Real-Time PCR System (Applied Biosystems). Data were normalized to CD14 expression for each sample. Fold induction was calculated using ΔΔCt.
Supernatant from these cells was transferred to primary CD14^+ human PBMCs. IFNB1 mRNA levels were normalized to CD14 and the fold induction was calculated relative to untreated CD14^+ cells.

COc1cc2ncnc(N3CCC(CCP(=O)(O)O)CC3)c2cc1OC [compound 1]
tumor-associated leukocyte compositions compared to the PBS control (4T1 tumor model; no IR): did not change | tumor associated CD11c+ population (4T1 tumor model; tumors pretreated with 20 Gy IR): increased | extracellular cGAMP levels (CD14+ IFNB1 expression; 293T cGAS ENPP1low cells transiently overexpressing ENPP1): rescued | CD14+ IFNB1 expression (CD14+ IFNB1 expression; supernatant of ENPP1-overexpressing 293T cGAS ENPP1low cells transferred to CD14+ monocytes): induced

Nc1nc2c(ncn2[C@@H]2O[C@@H]3COP(=O)(O)O[C@H]4[C@@H](O)[C@H](n5cnc6c(N)ncnc65)O[C@@H]4COP(=O)(O)O[C@@H]2[C@@H]3O)c(=O)[nH]1 [cGAMP, cyclic guanosine monophosphate-adenosine monophosphate]
effect over IR treatment (tumor) (4T1-luciferase tumor): no effect

COc1cccc2c(N3CCC(CCP(=O)(O)O)CC3)ncnc12 [Compound 76]
tumor size at day 7 compared to PBS with donor cells (B16F10 melanoma; 5 mg/kg and donor T cells): smaller reduction in tumor size | percentage of F4/80+ macrophages in tumors compared to PBS with donor T cells (B16F10 melanoma; 5 mg/kg plus donor T cells): higher | percentage of MDSC macrophages in tumors compared to PBS with donor T cells (B16F10 melanoma; 5 mg/kg plus donor T cells): lower | percentage of live cells in tumors compared to PBS with donor T cells (B16F10 melanoma; 5 mg/kg plus donor T cells): higher | percentage of Thy1.1+ (pmel-1 derived), gp100+, CD8+ donor T cells in tumors compared to PBS with donor splenocytes (B16F10 melanoma; 5 mg/kg plus donor splenocytes): higher | percentage of Thy1.2+ host cells in tumors (B16F10 melanoma; 5 mg/kg plus donor splenocytes): declined reciprocally | percentage of gp100+, CD8+, ki67+ T cells in tumors compared to PBS with donor splenocytes (B16F10 melanoma; 5 mg/kg plus donor splenocytes): higher | tumor size at day 7 compared to PBS with donor cells (B16F10 melanoma; 50 mg/kg and donor T cells): marked reduction in tumor size | percentage of F4/80+ macrophages in tumors compared to PBS with donor T cells (B16F10 melanoma; 50 mg/kg plus donor T cells): higher | percentage of MDSC macrophages in tumors compared to PBS with donor T cells (B16F10 melanoma; 50 mg/kg plus donor T cells): lower | percentage of live cells in tumors compared to PBS with donor T cells (B16F10 melanoma; 50 mg/kg plus donor T cells): higher | percentage of Thy1.1+ (pmel-1 derived), gp100+, CD8+ donor T cells in tumors compared to PBS with donor splenocytes (B16F10 melanoma; [2]): higher | percentage of Thy1.2+ host cells in tumors (B16F10 melanoma; [2]): declined reciprocally | percentage of gp100+, CD8+, ki67+ T cells in tumors compared to PBS with donor splenocytes (B16F10 melanoma; [2]): higher | IFN-γ secretion compared to PBS with donor T cells (IFN-γ secretion; 5 mg/kg plus donor T cells): elevated | IFN-γ secretion compared to PBS with donor T cells (IFN-γ secretion; 50 mg/kg plus donor T cells): elevated

O=P(O)(O)CCC1CCN(c2ncnc3ccccc23)CC1 [compound 25]
IC50 [1]: 0.005 to 0.05 µM
